In PubChem BioAssay AID248 (DTP/NCI, 2004):
Values joined by “and” are separate entries in the source; they are usually repeats but may differ in a detail not shown here. Equal entries are not always repeated. Toxic doses and inconclusive results are not listed. Cut-off read from the data, not from the text of the source: active = T/C of 150% or more; inactive = T/C below 125%.

System: L1210 leukemia ip in BDF1 mice, survival T/C
Assay: NCI In Vivo Anticancer Drug Screen. Data for tumor model L1210 Leukemia (intraperitoneal) in B6D2F1 (BDF1) mice
Conditions: endpoint: mean survival time, higher = longer survival
Procedure, shortened: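 Ratio derived from survival: compound-dosed mice over vehicle-dosed mice, all bearing a transplantable tumor.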

[1] = dose: 100.0 mg/kg/injection, schedule: Q04DX003 (ip), vehicle: saline with Tween-80
[2] = dose: 100.0 mg/kg/injection, schedule: Q01DX009 (ip), vehicle: saline with Tween-80
[3] = dose: 100.0 mg/kg/injection, schedule: Q04DX003 (ip), vehicle: Klucel (hydroxypropylcellulose) (HPC)
[4] = dose: 200.0 mg/kg/injection, schedule: Q01DX009 (ip), vehicle: saline with Tween-80
[5] = dose: 200.0 mg/kg/injection, schedule: Q04DX003 (ip), vehicle: Klucel (hydroxypropylcellulose) (HPC)
[6] = dose: 400.0 mg/kg/injection, schedule: Q01DX009 (ip), vehicle: saline with Tween-80
[7] = dose: 400.0 mg/kg/injection, schedule: Q04DX003 (ip), vehicle: Klucel (hydroxypropylcellulose) (HPC)
[8] = dose: 100.0 mg/kg/injection, schedule: Q01DX001 (ip), vehicle: saline
[9] = dose: 6.25 mg/kg/injection, schedule: Q01DX009 (ip), vehicle: Klucel (hydroxypropylcellulose) (HPC)
[10] = dose: 50.0 mg/kg/injection, schedule: Q01DX009 (ip), vehicle: saline with Tween-80
[11] = dose: 100.0 mg/kg/injection, schedule: Q04DX002 (ip), vehicle: Klucel (hydroxypropylcellulose) (HPC)
[12] = dose: 200.0 mg/kg/injection, schedule: Q04DX002 (ip), vehicle: Klucel (hydroxypropylcellulose) (HPC)
[13] = dose: 50.0 mg/kg/injection, schedule: Q04DX002 (ip), vehicle: Klucel (hydroxypropylcellulose) (HPC)

Measured: T/C

O=C(Nc1ccc(F)cc1)c1cccc(C(=O)Nc2ccc(F)cc2)c1
inactive: dose: 25.0 mg/kg/injection, schedule: Q04DX003 (ip), vehicle: saline with Tween-80 96 % of control | dose: 50.0 mg/kg/injection, schedule: Q04DX003 (ip), vehicle: saline with Tween-80 93 % of control | [1] 95 % of control and 87 % of control

COC(C)(OC)C(N)=O
inactive: [2] 96 % of control | [3] 94 % of control | [4] 111 % of control | [5] 96 % of control | [6] 98 % of control | [7] 92 % of control

CCC(=O)NCC(=O)O
inactive: dose: 6.25 mg/kg/injection, schedule: Q01DX009 (ip), vehicle: saline 103 % of control | dose: 6.25 mg/kg/injection, schedule: Q04DX003 (ip), vehicle: saline 96 % of control | dose: 12.5 mg/kg/injection, schedule: Q01DX009 (ip), vehicle: saline 95 % of control | dose: 12.5 mg/kg/injection, schedule: Q04DX003 (ip), vehicle: saline 96 % of control | dose: 25.0 mg/kg/injection, schedule: Q01DX009 (ip), vehicle: saline 92 % of control | dose: 25.0 mg/kg/injection, schedule: Q04DX003 (ip), vehicle: saline 100 % of control

NC(C(=O)O)C(O)c1ccc2c(c1)OCO2 (centres undefined)
inactive: [2] 103 % of control | [4] 103 % of control | [6] 113 % of control

O=C(O)C[P+](c1ccccc1)(c1ccccc1)c1ccccc1
inactive: dose: 50.0 mg/kg/injection, schedule: Q01DX001 (ip), vehicle: saline 106 % of control | [8] 112 % of control

C1CCC(C2CCCC[N-]2)[N-]C1.[Cl][Cu][Cl] (centres undefined)
inactive: dose: 1.56 mg/kg/injection, schedule: Q01DX009 (ip), vehicle: Klucel (hydroxypropylcellulose) (HPC) 95 % of control | dose: 3.13 mg/kg/injection, schedule: Q01DX009 (ip), vehicle: Klucel (hydroxypropylcellulose) (HPC) 102 % of control | [9] 86 % of control | [3] 109 % of control | [5] 95 % of control | [7] 101 % of control

CC(=O)Nc1ccn(CC(=O)c2cccs2)c(=O)n1
inactive: dose: 100.0 mg/kg/injection, schedule: Q01DX009 (ip), vehicle: saline 96 % of control | dose: 100.0 mg/kg/injection, schedule: Q04DX003 (ip), vehicle: saline 95 % of control | dose: 200.0 mg/kg/injection, schedule: Q01DX009 (ip), vehicle: saline 94 % of control | dose: 200.0 mg/kg/injection, schedule: Q04DX003 (ip), vehicle: saline 101 % of control | dose: 400.0 mg/kg/injection, schedule: Q01DX009 (ip), vehicle: saline 89 % of control | dose: 400.0 mg/kg/injection, schedule: Q04DX003 (ip), vehicle: saline 110 % of control

O=NN(C(=O)Nc1ccccc1)c1ccccc1
inactive: dose: 2.0 mg/kg/injection, schedule: Q01DX001 (ip), vehicle: carboxymethylcellulose (CMC) 106 % of control | dose: 4.0 mg/kg/injection, schedule: Q01DX001 (ip), vehicle: carboxymethylcellulose (CMC) 112 % of control | dose: 6.0 mg/kg/injection, schedule: Q01DX001 (ip), vehicle: carboxymethylcellulose (CMC) 112 % of control | dose: 8.0 mg/kg/injection, schedule: Q01DX001 (ip), vehicle: carboxymethylcellulose (CMC) 110 % of control | dose: 10.0 mg/kg/injection, schedule: Q01DX001 (ip), vehicle: carboxymethylcellulose (CMC) 104 % of control | dose: 12.5 mg/kg/injection, schedule: Q01DX001 (ip), vehicle: carboxymethylcellulose (CMC) 108 % of control | dose: 25.0 mg/kg/injection, schedule: Q01DX001 (ip), vehicle: carboxymethylcellulose (CMC) 100 % of control | dose: 50.0 mg/kg/injection, schedule: Q01DX001 (ip), vehicle: carboxymethylcellulose (CMC) 102 % of control | dose: 100.0 mg/kg/injection, schedule: Q01DX001 (ip), vehicle: carboxymethylcellulose (CMC) 108 % of control

CNc1ncnc2nn(C)c(C#N)c12
inactive: dose: 50.0 mg/kg/injection, schedule: Q04DX002 (ip), vehicle: saline 106 % of control | dose: 100.0 mg/kg/injection, schedule: Q04DX002 (ip), vehicle: saline 95 % of control | dose: 200.0 mg/kg/injection, schedule: Q04DX002 (ip), vehicle: saline 103 % of control

O=C(c1ccccc1)c1ccsc1C(=O)c1ccccc1
inactive: [10] 89 % of control | [2] 86 % of control | [4] 89 % of control

CCc1c(C)nc(N)[nH]c1=O
inactive: [1] 106 % of control | dose: 200.0 mg/kg/injection, schedule: Q04DX003 (ip), vehicle: saline with Tween-80 106 % of control

CC1(C)C2CCCC1(CCOC(=O)COc1cc(Cl)c(Cl)cc1Cl)C2 (centres undefined)
inactive: [11] 98 % of control | [12] 91 % of control | dose: 400.0 mg/kg/injection, schedule: Q04DX002 (ip), vehicle: Klucel (hydroxypropylcellulose) (HPC) 88 % of control

O=S(=O)(O)c1ccc(-c2c3nc(c(-c4ccc(S(=O)(=O)O)cc4)c4ccc([nH]4)c(-c4ccc(S(=O)(=O)O)cc4)c4nc(c(-c5ccc(S(=O)(=O)O)cc5)c5ccc2[nH]5)C=C4)C=C3)cc1
inactive: dose: 12.5 mg/kg/injection, schedule: Q01DX009 (ip), vehicle: saline with Tween-80 90 % of control | dose: 25.0 mg/kg/injection, schedule: Q01DX009 (ip), vehicle: saline with Tween-80 90 % of control | [10] 98 % of control | [2] 88 % of control

CCCCCCCCCCCCCCCCCC1=NCCN1
inactive: [9] 95 % of control | dose: 12.5 mg/kg/injection, schedule: Q01DX009 (ip), vehicle: Klucel (hydroxypropylcellulose) (HPC) 87 % of control | dose: 25.0 mg/kg/injection, schedule: Q01DX009 (ip), vehicle: Klucel (hydroxypropylcellulose) (HPC) 92 % of control | dose: 25.0 mg/kg/injection, schedule: Q04DX002 (ip), vehicle: Klucel (hydroxypropylcellulose) (HPC) 103 % of control | dose: 50.0 mg/kg/injection, schedule: Q01DX001 (ip), vehicle: other 91 % of control | [13] 103 % of control | dose: 100.0 mg/kg/injection, schedule: Q01DX001 (ip), vehicle: other 97 % of control | [11] 95 % of control and 98 % of control | dose: 200.0 mg/kg/injection, schedule: Q01DX001 (ip), vehicle: other 89 % of control | dose: 400.0 mg/kg/injection, schedule: Q01DX001 (ip), vehicle: other 97 % of control

CCOC(=O)C(/C=N/C(N)=O)=C(\C)O
inactive: dose: 100.0 mg/kg/injection, schedule: Q01DX009 (ip), vehicle: Klucel (hydroxypropylcellulose) (HPC) 105 % of control | [3] 102 % of control | dose: 200.0 mg/kg/injection, schedule: Q01DX009 (ip), vehicle: Klucel (hydroxypropylcellulose) (HPC) 95 % of control | [5] 101 % of control | dose: 400.0 mg/kg/injection, schedule: Q01DX009 (ip), vehicle: Klucel (hydroxypropylcellulose) (HPC) 106 % of control | [7] 92 % of control

O=C1NC(=O)c2cc([N+](=O)[O-])cc3cccc1c23
inactive: [8] 94 % of control | dose: 100.0 mg/kg/injection, schedule: Q01DX009 (ip), vehicle: saline sonified 90 % of control | [3] 97 % of control | dose: 200.0 mg/kg/injection, schedule: Q01DX001 (ip), vehicle: saline 97 % of control | dose: 200.0 mg/kg/injection, schedule: Q01DX009 (ip), vehicle: saline sonified 95 % of control | [5] 87 % of control | dose: 400.0 mg/kg/injection, schedule: Q01DX001 (ip), vehicle: saline 90 % of control | dose: 400.0 mg/kg/injection, schedule: Q01DX009 (ip), vehicle: saline sonified 88 % of control | [7] 86 % of control

N/C(=N\OC(=O)c1ccccc1)c1ccccc1
inactive: [13] 96 % of control | [11] 104 % of control | [12] 93 % of control
